According to patent US20210386721A1, “SUBSTITUTED PHENYLPROPENYL PYRIDINE DERIVATIVES, THEIR PREPARATION AND PHARMACEUTICAL APPLICATIONS” (SHANGHAI HAIYAN PHARMACEUTICAL TECHNOLOGY CO., LTD., priority 2019, published 2021):

Experiments:
PD-1/PD-L1 = target: T1, PD-1/PD-L1 (Homo sapiens, UniProt Q9NZQ7); experiment: PD-1/PD-L1 binding assay (HTRF, PPI-HTRF); conditions: HTRF PD1/PD-L1 binding assay kit; 10 nM Tag1-PD-L1; 25° C.
T1 construct: purchased Cisbio 63ADK000CPDPEB
Summary of the method: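 HTRF binding assay: compound was mixed with tagged proteins at final concentrations of 10 nM Tag1-PD-L1 and 2 nM PD1 for 15 min at 25 °C. Anti-Tag1-Eu³⁺ and anti-Tag2-XL665 antibodies were then added for 16 h at 25 °C. IC50 was derived from the 665/620 nm emission ratio.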

[1] = system: Jurkat T(PD1 Luc-)/CHOK1(PDL-1); experiment: Jurkat T(PD1 Luc-)/CHOK1(PDL-1) cell experiment (luciferase reporter); assay type: cell-based; conditions: CHO/PD-L1-OKT3 cells co-cultured with Jurkat/PD1-NFAT-Luc cells for 6 hours; Bio-Glo luciferase signal
Method: Assay 2 Jurkat T(PD1 Luc-)/CHOK1(PDL-1) Cell Experiment
G418, Sangon Biotech #A100859-0001, Cat Number G108BA0003, 5 ml of deionized water being added into each bottle, store at 4° C.
CHO/PD-L1-OKT3 cells (constructed by referring to Promega's PD-1/PD-L1 Blockade Bioassays system) cultured in F-12K medium (containing 10% FBS, 800 ug/ml G418, 400 ug/ml D Hygromycin B) were planted into a 96-well plate at 2×10^4 per well, and incubated for 24 hours at 37° C. and 5% CO2. part of the medium was removed, and the test compound dissolved in DMSO with a final concentration of 1 uM was added, and DMSO at the same concentration was added into the control cells. Jurkat/PD1-NFAT-Luc cells (constructed by referring to Promega's PD-1/PD-L1 Blockade Bioassays system) were added at 5×10^5 per well at the same time, and cultured for 6 hours. The corresponding luciferase signal was detected by Bio-Glo™ (Promega, G7940) reagent. The EC50 of each compound to be tested was calculated through the non-linear regression of XLfit software.

T1 sequence (Q9NZQ7 19-238 limits assumed): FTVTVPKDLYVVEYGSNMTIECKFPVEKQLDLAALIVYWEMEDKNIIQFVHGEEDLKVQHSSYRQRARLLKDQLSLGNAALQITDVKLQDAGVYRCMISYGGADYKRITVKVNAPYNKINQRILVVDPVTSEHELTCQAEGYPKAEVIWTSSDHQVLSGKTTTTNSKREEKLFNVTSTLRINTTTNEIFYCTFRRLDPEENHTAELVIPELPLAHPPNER

Row | SMILES | IC50 (PD-1/PD-L1) [nM] | EC50 [1] [nM]
1 | COc1cc(/C=C/c2cccc(-c3cccc(NC(=O)c4ccc(CN5CC[C@@H](O)C5)cn4)c3Cl)c2Cl)c(C(F)(F)F)cc1CN1CC[C@@H](C(=O)O)C1 [Z-93] | 2 | 8
2 | COc1cc(/C=C/c2cccc(-c3cccc(NC(=O)c4ccc(CN5CC[C@@H](O)C5)cn4)c3C(F)(F)F)c2C#N)c(C(F)(F)F)cc1CN1CC[C@@H](C(=O)O)C1 [Z-98] | 2 | 174
3 | COc1cc(/C=C/c2cccc(-c3cccc(NC(=O)c4ccc(CN5CC[C@@H](O)C5)cn4)c3C#N)c2C)c(C(F)(F)F)cc1CN1CC[C@@H](C(=O)O)C1 [Z-105] | 1 | 14
4 | COc1cc(/C=C/c2cccc(-c3cccc(NC(=O)c4ccc(CN5CC[C@@H](O)C5)cn4)c3C)c2C)c(C(F)(F)F)cc1CN1CCCC(C(=O)O)C1 (stereo partly shown) [Z-106] | 1 | 20
5 | COc1cc(/C=C/c2cccc(-c3cccc(NC(=O)c4ccc(CN5CC[C@@H](O)C5)cn4)c3Cl)c2C)c(C(F)(F)F)cc1CNC[C@@H](O)CC(=O)O [Z-107] | 1 | 16
6 | COc1cc(/C=C/c2cccc(-c3cccc(NC(=O)c4nc5c(n4C)CCN(C)C5)c3Cl)c2C)c(C(F)(F)F)cc1CN1CCCC[C@H]1C(=O)O [Z-108, (S,E)-1-(4-(2-(2′-chloro-3′-(1,5-dimethyl-4,5,6,7-tetrahydro-1H-imidazo[4,5-c]pyridine-2-carboxamido)-2-methyl-[1,1′-biphenyl]-3-yl)vinyl)-2-methoxy-5-(trifluoromethyl)benzyl)piperidine-2-carboxylic Acid] | 2 | 57
7 | COc1cc(/C=C/c2cccc(-c3cccc(NC(=O)c4ccc(CNCCS(C)(=N)=O)cn4)c3C)c2C)c(C(F)(F)F)cc1CN1CC[C@@H](C(=O)O)C1 (stereo partly drawn) [Z-109, (3R)-1-(4-((E)-2-(2,2′-dimethyl-3′-(5-(((2-(S-methylsulfonimidoyl)ethyl)amino)methyl)picolinamido)-[1,1′-biphenyl]-3-yl)vinyl)-2-methoxy-5-(trifluoromethyl)benzyl)pyrrolidine-3-carboxylic Acid] | 1 | 121
8 | COc1cc(/C=C/c2cccc(-c3cccc(NC(=O)c4ccc(CNC[C@@H]5CCC(=O)N5)cn4)c3C)c2C)c(C(F)(F)F)cc1CN1CC[C@@H](C(=O)O)C1 [Z-110, (R)-1-(4-((E)-2-(2,2′-dimethyl-3′-(5-(((((S)-5-oxopyrrolidin-2-yl)methyl)amino)methyl)picolinamido)-[1,1′-biphenyl]-3-yl)vinyl)-2-methoxy-5-(trifluoromethyl)benzyl)pyrrolidine-3-carboxylic Acid] | 1 | 153
9 | COc1cc(C(=O)Nc2cccc(-c3cccc(/C=C/c4cc(OC)c(CN5CCC[C@H]5C(=O)O)cc4C(F)(F)F)c3C)c2C)ncc1CNCCO [Z-112] | 1 | 25
10 | COc1cc(/C=C/c2cccc(-c3cccc(NC(=O)c4nc5c(n4C)CCN(CCO)C5)c3Cl)c2C)c(C(F)(F)F)cc1CN1CCCC[C@H]1C(=O)O [Z-113, (S, E)-1-(4-(2-(2′-chloro-3′-(5-(2-hydroxyethyl)-1-methyl-4,5,6,7-tetrahydro-1H-imidazo [4,5-c]pyridine-2-carboxamido)-2-methyl-[1,1′-biphenyl]-3-yl)vinyl)-2-methoxy-5-(trifluoromethyl)benzyl) piperidine-2-carboxylic Acid] | 1 | 66
11 | COc1cc(C(=O)Nc2cccc(-c3cccc(/C=C/c4cc(OC)c(CN5CC[C@@H](C(=O)O)C5)cc4C(F)(F)F)c3C)c2C)ncc1CN1CC(CO)C1 [Z-114, (R,E)-1-(4-(2-(3′-(5-((3-(hydroxymethyl)azetidin-1-yl)methyl)-4-methoxypicolinamido)-2,2′-dimethyl-[1,1′-biphenyl]-3-yl)vinyl)-2-methoxy-5-(trifluoromethyl)benzyl)pyrrolidine-3-carboxylic Acid] | 1 | 54
12 | COc1cc(C(=O)Nc2cccc(-c3cccc(/C=C/c4cc(OC)c(CN5CCC[C@H]5C(=O)O)cc4C(F)(F)F)c3C)c2C)ncc1CN1CC[C@@H](O)C1 [Z-115] | 1 | 31
13 | COc1cc(C(=O)Nc2cccc(-c3cccc(/C=C/c4cc(OC)c(CN5CC[C@@H](C(=O)O)C5)cc4C(F)(F)F)c3C)c2C)ncc1CN1CC[C@@H](O)C1 [Z-117] | 1 | 13
14 | COc1cc(/C=C/c2cccc(-c3cccc(NC(=O)c4cc(OC)c(CN5CC[C@@H](O)C5)cn4)c3C)c2C)c(C(F)(F)F)cc1CNC[C@@H](O)CC(=O)O [Z-118, (S)-3-hydroxy-4-((4-((E)-2-(3′-(5-(((R)-3-hydroxypyrrolidin-1-yl)methyl)-4-methoxypicolinamido)-2,2′-dimethyl-[1,1′-biphenyl]-3-yl)vinyl)-2-methoxy-5-(trifluoromethyl)benzyl)amino) butanoic Acid] | 1 | 13
15 | COc1cc(/C=C/c2cccc(-c3cccc(NC(=O)c4cc(CN5CC[C@@H](O)C5)ccn4)c3C)c2C)c(C(F)(F)F)cc1CN1CC[C@@H](C(=O)O)C1 [Z-120] | 1 | 15
16 | COc1cc(C(=O)Nc2cccc(-c3cccc(/C=C/c4cc(OC)c(CN5CCC(C)(C(=O)O)C5)cc4C(F)(F)F)c3C)c2C)ncc1CN1CC[C@@H](O)C1 (stereo partly shown) [Z-121] | 1 | 31
17 | COc1cc(/C=C/c2cccc(-c3cccc(NC(=O)c4cc(OC)c(CN5CC[C@@H](O)C5)cn4)c3C)c2C)c(C(F)(F)F)cc1CN1CCC(C(=O)O)CC1 [Z-122] | 1 | 18

Now from value to molecule, other results behind:

Row | IC50 (PD-1/PD-L1) [nM] | SMILES | EC50 [1] [nM]
18 | 1 | COc1cc(/C=C/c2cccc(-c3cccc(NC(=O)c4ccc(CN5CC[C@@H](O)C5)cn4)c3Cl)c2C)c(C(F)(F)F)cc1CN1CCC(C(=O)O)CC1 [Z-89] | 16
19 | 1 | Cc1cc(/C=C/c2cccc(-c3cccc(NC(=O)c4ccc(CN5CC[C@@H](O)C5)cn4)c3C)c2C)c(C(F)(F)F)cc1CN1CC[C@@H](C(=O)O)C1 [Z-90] | 24
20 | 1 | Cc1cc(/C=C/c2cccc(-c3cccc(NC(=O)c4ccc(CN5CC[C@@H](O)C5)cn4)c3C)c2C)c(C2CC2)cc1CN1CC[C@@H](C(=O)O)C1 [Z-91] | 147
21 | 1 | COc1cc(/C=C/c2cccc(-c3cccc(NC(=O)c4ccc(CN5CC[C@@H](O)C5)cn4)c3Cl)c2C)c(C(F)(F)F)cc1CN1CCC[C@H]1C(=O)O [Z-92] | 6
22 | 1 | COc1cc(/C=C/c2cccc(-c3cccc(NC(=O)c4ccc(CN5CC[C@@H](O)C5)cn4)c3C)c2C#N)c(C(F)(F)F)cc1CN1CC[C@@H](C(=O)O)C1 [Z-94] | 10
23 | < 1 | COc1cc(/C=C/c2cccc(-c3cccc(NC(=O)c4ccc(CN5CC[C@@H](O)C5)cn4)c3Cl)c2C#N)c(C(F)(F)F)cc1CN1CC[C@@H](C(=O)O)C1 [Z-95] | 4
24 | < 1 | COc1cc(/C=C/c2cccc(-c3cccc(NC(=O)c4ccc(CN5CC[C@@H](O)C5)cn4)c3F)c2Cl)c(C(F)(F)F)cc1CN1CC[C@@H](C(=O)O)C1 [Z-96] | 10
25 | < 1 | COc1cc(/C=C/c2cccc(-c3cccc(NC(=O)c4ccc(CN5CC[C@@H](O)C5)cn4)c3C)c2C)c(C(F)(F)F)cc1CN1CC[C@H](C(=O)O)C1 [Z-97] | 2
26 | < 1 | COc1cc(/C=C/c2cccc(-c3cccc(NC(=O)c4ccc(CN5CC[C@@H](O)C5)cn4)c3Cl)c2F)c(C(F)(F)F)cc1CN1CC[C@@H](C(=O)O)C1 [Z-99] | 35
27 | 1 | Cc1cc(/C=C/c2nccc(-c3cccc(NC(=O)c4ccc(CN5CC[C@@H](O)C5)cn4)c3C)c2C#N)c(C(F)(F)F)cc1CN1CC[C@@H](C(=O)O)C1 [Z-101] | 122
28 | 1 | COc1cc(/C=C/c2cccc(-c3cccc(NC(=O)c4ccc(CN5CC[C@@H](O)C5)cn4)c3C)c2C)c(C(F)(F)F)cc1CN1CCCC[C@H]1C(=O)O [Z-102] | 9
29 | 1 | COc1cc(/C=C/c2cccc(-c3cccc(NC(=O)c4ccc(CN5CC[C@@H](O)C5)cn4)c3C)c2C)c(C(F)(F)F)cc1CN1CCC(C)(C(=O)O)C1 (stereo partly shown) [Z-103] | 19
